Test results taken from article PMC10575921 (Nature Communications, 2023).
≈ marks a conversion by molar mass, not a printed value. Where “and” joins values, the source holds several entries; their conditions need not be identical. Identical values can stand only once. Like-named read-outs stand apart in the source and are kept apart here.

Legend:
[1] = male, C57BL/6J, mouse, in vivo
[2] = both, cynomolgus monkey, in vivo
SARS-CoV-2 WIV04 strain = experiment: microbe, parasite or virus in culture; conditions: Severe acute respiratory syndrome coronavirus 2, Vero C1008, read-out: EC50^CP
[3] = system: human primary hepatocytes; experiment: cells; conditions: Hepatocyte
[4] = both, SD, rat, in vivo
[5] = male, C57BL/6J, in vivo
in vivo [6] = conditions: both, cynomolgus monkey
CYP enzymes (all tested) = experiment: in vitro; conditions: human
in vivo [7] = conditions: both, SD, rat
[8] = system: human primary hepatocytes; conditions: human
SARS-CoV-2 Delta strain = experiment: microbe, parasite or virus in culture; type: cell-based
CYP3A4/5 = experiment: in vitro; conditions: human, microsomes
in vivo [9] = conditions: both, cynomolgus monkey; remark: listed apart in the source
in vitro [10] = conditions: rat, plasma
in vitro [11] = conditions: mouse, plasma
in vitro [12] = conditions: monkey, plasma
[13] = system: SARS-CoV-2 Omicron strain; experiment: microbe, parasite or virus in culture
[14] = system: Chinese hamster lung (CHL) cells
[15] = system: SARS-CoV-2 Omicron strain
[16] = system: human peripheral blood mononuclear cells (PBMCs); experiment: cells; conditions: PBMC
[17] = system: human peripheral blood mononuclear cells (PBMCs)
in vivo [18] = conditions: male, C57BL/6J, mouse, po
in vivo [19] = conditions: both, Sprague-Dawley, rat
[20] = both, cynomolgus monkey, in vivo; remark: listed apart in the source

**Q.** Which results are given for `CC(C)(C)[C@H](NC(=O)C(F)(F)F)C(=O)N1CC2(C[C@H]1C(=O)N[C@H](C#N)C[C@@H]1CCNC1=O)SCCS2` [compound 9, simnotrelvir]?
**A.** time plasma concentration maintained above EC90^total [1]: 24 h; increase of AUC0-∞ by ritonavir [2]: 9.6 fold; increase of Cmax by ritonavir [2]: 3.9 fold; EC50 (SARS-CoV-2 WIV04 strain): 26 nM; inhibition of 413 human kinases (413 human kinases): no significant inhibitory activities; IC50 [3]: > 150000 nM; tolerability in two-week toxicity study [4]: well tolerated; exposure in the mouse brains [5]: moderate simnotrelvir exposure; time brain concentration covers EC50^total ([5]; mouse): > 8 h; time brain concentration covers EC90^total ([5]; mouse): more than 2 h; bioavailability (in vivo [6]; 5 mg/kg): 41.9%; half-life (in vivo [6]; 5 mg/kg): 1.7 h; Vd (in vivo [6]; iv, 5 mg/kg): 1.5 L/kg; clearance (in vivo [6]; iv, 5 mg/kg): 20.7 mL/min/kg; AUC(0-inf) (in vivo [6]; po): 17200 ng·h/mL; AUC(0-t) (in vivo [6]; po): 17000 ng·h/mL; Cmax (in vivo [6]; po): 2440 ng/mL; half-life (in vivo [6]; po): 2.38 h; AUC(0-inf) (in vivo [6]; po, 5 mg/kg): 1790 ng·h/mL; AUC(0-t) (in vivo [6]; po, 5 mg/kg): 1660 ng·h/mL; Cmax (in vivo [6]; po, 5 mg/kg): 625 ng/mL; half-life (in vivo [6]; po, 5 mg/kg): 5.63 h; calculated metabolic contribution of CYP3A (CYP3A): 87%; IC50 (CYP enzymes (all tested)): ≥ 30000 nM; Cmax (in vivo [7]; 1000 mg/kg/day): 17000 ng/mL; NOAEL (in vivo [7]; po): 1000 mg/kg/day; IC50 or CC50: PHHs [8]: > 150000 nM; toxicity to human hepatocytes [8]: no toxicity was observed; EC90^total (SARS-CoV-2 Delta strain): 0.906 µg/mL (≈ 1.65 µM); EC90 (SARS-CoV-2 Delta strain; Severe acute respiratory syndrome coronavirus 2, Vero C1008, read-out: EC90^total): 0.523 µg/mL; EC50 (SARS-CoV-2 Delta strain; read-out: EC50^CP): 34 nM; EC90 (SARS-CoV-2 Delta strain; read-out: EC90 (nM), single independent experiment): 290 nM and 382 nM; IC50 (CYP3A4/5): 30000 nM; activity at 0.1 µM (CYP3A4/5; […]): 104%; activity at 1 µM (CYP3A4/5; […]): 101%; activity at 3.33 µM (CYP3A4/5; […]): 95.4%; activity at 10 µM (CYP3A4/5; […], 10 μM): 73.9%; activity at 33.3 µM (CYP3A4/5; […], 33.3 μM): 46.6%; activity at 100 µM (CYP3A4/5; […], 100 μM): 21.8%; Cmax (in vivo [9]; 600 mg/kg/day): 26400 ng/mL; NOAEL (in vivo [9]; po): 600 mg/kg/day; fraction unbound (in vitro [10]): 0.334; fraction unbound (in vitro [11]): 0.217; fraction unbound (in vitro [12]): 0.193; EC50 ([13]; Severe acute respiratory syndrome coronavirus 2, Vero C1008): 38.7 nM; EC50 ([13]; Severe acute respiratory syndrome coronavirus 2, Vero C1008, read-out: EC50^CP): 43 nM; chromosome aberration test (CA) result [14]: negative; EC50 [15]: 44.9 nM; IC50 [16]: > 150000 nM; IC50 or CC50: PBMC [17]: > 150000 nM; toxicity to human PBMCs [17]: no toxicity was observed; Cmax (in vivo [18]): 49300 ng/mL; Cmax (in vivo [18]; 50 mg/kg): 18500 ng/mL; bioavailability (in vivo [19]; 15 mg/kg): 35.3%; half-life (in vivo [19]; 15 mg/kg): 0.45 h; Vd (in vivo [19]; iv, 15 mg/kg): 1.36 L/kg; clearance (in vivo [19]; iv, 15 mg/kg): 59.3 mL/min/kg; AUC(0-inf) (in vivo [19]; po): 9000 ng·h/mL; AUC(0-t) (in vivo [19]; po): 8920 ng·h/mL; Cmax (in vivo [19]; po): 2760 ng/mL; half-life (in vivo [19]; po): 1.99 h; AUC(0-inf) (in vivo [19]; po, 15 mg/kg): 1730 ng·h/mL; AUC(0-t) (in vivo [19]; po, 15 mg/kg): 1700 ng·h/mL; Cmax (in vivo [19]; po, 15 mg/kg): 1580 ng/mL; half-life (in vivo [19]; po, 15 mg/kg): 1.29 h; tolerability in two-week toxicity study [20]: well tolerated
